# Patent US6608036B1, “Oligonucleotide N3′→P5′ thiophosphoramidates: their synthesis and administration to treat neoplasms” (Geron Corporation, priority 1999, dated 2003)
# Like-named read-outs stand apart in the source and are kept apart here.
# Columns and labels:
# [1] = test system: complementary natural RNA oligomer; assay: Thermal dissociation (Tm) of duplexes with complementary RNA strand; format: binding; settings: 150 mM NaCl; for Tm, melting temperature of the duplexes: 10 mM sodium phosphate buffer pH 7.4, ±0.5° C.
# Method: ^31P NMR spectra were obtained on a Varian 400 Mhz spectrometer. ^31P NMR spectra were referenced against 85% aqueous phosphoric acid. Anion exchange HPLC was performed using a Dionex DX 500 Chromatography System, with a Pharmacia Bitotech Mono Q HR 5/5 or 10/16 ion exchange columns. Mass spectral analysis was performed by Mass Consortium, San Diego, Calif. MALDI-TOF analysis of oligonucleotides was obtained using a PerSpective Biosystems Voyager Elite mass spectrometer with delayed extraction. Thermal dissociation experiments were conducted on a Cary Bio 100 UV-Vis spectrometer.
# Duplex formation properties of oligonucleotide phosphoramidates with complementary RNA strand were evaluated using thermal dissociation experiments. […] Also, the increase in the thermal stability of duplexes was similar to that observed for the phosphoramidate oligomers.
# [2] = test system: telomerase (affinity-purified extract from 293 cells over-expressing hTERT); assay: Bio-Tel FlashPlate telomerase activity assay; format: biochemical, human; settings: telomerase inhibition
# HME50-5E cells = assay: Reduction of telomere length in tumor cells (TRF analysis); format: cell-based, human; settings: for telomere length by TRF analysis: about 0.5 μM, measured at 10, 20, 40 and 80 days (FIG. 7)
# Method: Colonies of human breast epithelial cells (spontaneously immortalized) were prepared using standard methods and materials. Colonies were prepared by seeding 15-centimeter dishes with about 10^6 cells in each dish. The dishes were incubated to allow the cell colonies to grow to about 80% confluence, at which time each of the colonies were divided into two groups. One group was exposed to a subacute dose of thiophosphoramidate polynucleotide SEQ ID NO:2 at a predetermined concentration (e.g., between about 100 nM and about 20 μM) for a period of about 4-8 hours after plating following the split. The second group of cells were similarly exposed to mismatch control oligonucleotide SEQ ID NO:4.
# Each group of cells is then allowed to continue to divide, and the groups are split evenly again (near confluence). The same number of cells were seeded for continued growth. The test thiophosphoramidate oligonucleotide or control oligonucleotide was added every fourth day to the samples at the same concentration delivered initially. In one experiment the cells were additionally treated with FuGENE6™ (Boehringer-Mannhiem) following manufacturers instructions. FuGENE6™ enhances oligonucleotide uptake by the cells.
# Telomere length was determined by digesting the DNA of the cell samples using restriction enzymes specific for sequences other than the repetitive T2AG3 sequence of human telomeres (TRF analysis). The digested DNA was separated by size using standard techniques of gel electrophoresis to determine the lengths of the telomeric repeats, which appear, after probing with a telomere DNA probe, on the gel as a smear of high-molecular weight DNA (approximately 2 Kb-15 Kb). FIGS. 4 and 5 show examples of such experiments.
# The HME50-5E cells were incubated with one of the thiophosphoramidate polynucleotides shown in SEQ ID NOs:2 and 8. The mismatch oligonucleotide SEQ ID NO:4 was used as a control. All polynucleotides were used at a concentration of about 0.5 μM using the protocol described above. The length of the telomeres were measured at 10, 20, 40 and 80 days. […] In addition to the HME50-5E cells described above, this assay can be performed with any telomerase-positive cell line, such as HeLa cells or HEK-293 cells.
# [3] = 40% aqueous acetic acid at room temperature
# [4] = phosphoramidate backbone, read-out: IC50(nM) phosphoramidate
# [5] = thiophosphoramidate backbone, read-out: IC50(nM) thiophosphoramidate
substance,measurement,setting,value
"5′-GTTAGGGTTAG-3′ (listed as DNA, chemistry not fully specified) [SEQ ID NO:1 phosphoramidate]","−Tm, increase of Tm relative to the natural phosphodiester counterpart","[1]; 10 mM sodium phosphate buffer pH 7.4, listed as SEQ ID NO:1 np",27.9 °C
same,"Tm, melting temperature of the duplexes",[1]; listed as SEQ ID NO:1 np,72.1 °C
same,IC50,[2]; [4],1.9 nM
"5′-GTTAGGGTTAG-3′ (listed as DNA, chemistry not fully specified) [SEQ ID NO:1 thiophosphoramidate]","−Tm, increase of Tm relative to the natural phosphodiester counterpart","[1]; 10 mM sodium phosphate buffer pH 7.4, listed as SEQ ID NO:1 nps",27.3 °C
same,"Tm, melting temperature of the duplexes",[1]; listed as SEQ ID NO:1 nps,71.5 °C
same,IC50,[2]; [5],0.89 nM
"5′-GTTGAGTGTAG-3′ (listed as DNA, chemistry not fully specified) [SEQ ID NO:3 phosphoramidate, N3′→P5′ phosphoramidate mismatch control, reference compound]",IC50,[2]; [4],1000 nM
"5′-GTTGAGTGTAG-3′ (listed as DNA, chemistry not fully specified) [SEQ ID NO:3 thiophosphoramidate]",IC50,[2]; [5],177 nM
"5′-TAGGGTTAGACAA-3′ (thiophosphoramidate backbone, chemistry not fully specified) [SEQ ID NO:2 thiophosphoramidate]","−Tm, increase of Tm relative to the natural phosphodiester counterpart",[1]; 10 mM sodium phosphate buffer pH 7.4,24.8 °C
same,"Tm, melting temperature of the duplexes",[1],70.0 °C
same,IC50,[2]; [5],0.41 nM
same,telomere size compared to control cells,"HME50-5E cells; HME50-5E cells coincubated with FuGENE6, even at lowest concentration tested (100 nM) (FIG. 4)",telomere size was reduced compared to the control cells
same,telomere length by TRF analysis,HME50-5E cells; HME50-5E cells,effective in reducing telomere length
same,telomere length,"HME50-5E cells; HME50-5E cells, absence of FuGENE6, 1-20 μM (FIG. 4)",large decrease in telomere length
same,telomere length (inhibition of telomerase activity),HME50-5E cells; treatment of HME50-5E human breast epithelial cells,decrease in telomere length
5′-TAGGGTTAGACAA-3′ [SEQ ID NO:2 phosphoramidate],"−Tm, increase of Tm relative to the natural phosphodiester counterpart","[1]; 10 mM sodium phosphate buffer pH 7.4, listed as SEQ ID NO:2 np",26.5 °C
same,"Tm, melting temperature of the duplexes",[1]; listed as SEQ ID NO:2 np,71.7 °C
same,"Acid Stability, half-live of oligonucleotide",[3]; listed as SEQ ID NO:2 np,0.5 h
"5′-TAGGGTTAGACAA-3′ [SEQ ID NO:2 thiophosphoramidate] (thiophosphoramidate backbone, chemistry not fully specified)","Acid Stability, half-live of oligonucleotide",[3]; listed as SEQ ID NO:2 nps,6 h
"5′-TAGGTGTAAGCAA-3′ (listed as DNA, chemistry not fully specified) [SEQ ID NO:4 phosphoramidate, N3′→P5′ phosphoramidate mismatch control, reference compound]",IC50,[2]; [4],1000 nM
"5′-TAGGTGTAAGCAA-3′ (listed as DNA, chemistry not fully specified) [SEQ ID NO:4 thiophosphoramidate]",IC50,[2]; [5],79.3 nM
"CAGTTAGGGTTAG (listed as DNA, chemistry not fully specified) [SEQ ID NO:8 thiophosphoramidate]",telomere length by TRF analysis,HME50-5E cells; HME50-5E cells,effective in reducing telomere length
same,telomere size compared to control cells,HME50-5E cells; even at lowest concentration tested (1 nM) (FIG. 5),telomere size was reduced compared to the control cells
"GTTAGGGTTAG (unmodified DNA) [SEQ ID NO:1 po, natural phosphodiester oligomer]","Tm, melting temperature of the duplexes",[1],44.2 °C
"TAGGGTTAGACAA (DNA, all phosphodiester, methylation of C not given here) [SEQ ID NO:2 po, natural phosphodiester oligomer]","Tm, melting temperature of the duplexes",[1],45.2 °C
